What was measured:
[1] = LogP (1-octanol/water partition coefficient) determined using HPLC; assay type: physicochemical; settings: HPLC (OECD guideline), C18 column, methanol–water 75% (v/v), 40 °C, mean of triplicate
Experimental: Hydrophobicity is a key determinant of the activity and pharmacokinetics of biologically active compounds, and the octanol–water partition coefficient (P) and logarithm value (LogP) are widely used hydrophobicity parameters. The LogP values of the synthesized compounds were determined using HPLC [45, 46]. Table 1 summarizes the experimentally determined LogP values and calculated values. […] From the viewpoint of the phosphine structure, an increase in the number of carbon atoms increased hydrophobicity in a predictable manner.
The 1-octanol/water partition coefficient P was determined using HPLC based on the OECD Guideline for Testing Chemicals. A COSMOSIL Packed Column 5C18-MS-II (5 μm, 150 mm × 4.6 mm id, Nacalai Tesque, Inc., Kyoto, Japan) was fitted on an HPLC instrument (Multiwavelength Detector, MD-2010 Plus. JASCO, Tokyo, Japan) equipped with a pump (PU-2080, JASCO) and an oven (SSC-2120, Senshu Scientific Co., Ltd., Tokyo, Japan). The injection volume was 20 µL; the mobile phase was methanol–water 75% (v/v); and the flow rate was 1.0 mL/min in all cases. Compounds were detected by measuring the UV absorption at 240 nm. The temperature of the column was kept at 40.0 (± 0.1) °C during the measurement. The measurement was performed in triplicate, and the mean value was calculated. The dead time t0 was measured with thiourea as the unretained compound, and the capacity factor k was calculated using the equation logk = log (tr − t0/t0), where tr represents the retention time of the compound. A calibration graph was determined experimentally using reference compounds (4-methylphenol, 4-chlorophenol, 4-phenylphenol, diphenylether, fluoranthene, and dichlorodiphenyltrichloroethane) with known logP values. The LogP values of phosphine–boranes were calculated based on a calibration graph (LogP = 2.6269 logkw + 3.059, R^2 = 0.9915).

[2] = target: T1, progesterone receptor (PR) (Homo sapiens, UniProt P06401); assay: T47D alkaline phosphatase assay, PR antagonistic activity in the presence of 1 nM P4; assay type: cell-based; settings: T47D cells, 1.0 nM P4, 48 h; mean ± SD from three independent experiments
T1 construct: alkaline phosphatase assay with the T47D human breast cancer cell line; endogenous in cells; host or cells: T47D
T1 sequence (P06401 1-933): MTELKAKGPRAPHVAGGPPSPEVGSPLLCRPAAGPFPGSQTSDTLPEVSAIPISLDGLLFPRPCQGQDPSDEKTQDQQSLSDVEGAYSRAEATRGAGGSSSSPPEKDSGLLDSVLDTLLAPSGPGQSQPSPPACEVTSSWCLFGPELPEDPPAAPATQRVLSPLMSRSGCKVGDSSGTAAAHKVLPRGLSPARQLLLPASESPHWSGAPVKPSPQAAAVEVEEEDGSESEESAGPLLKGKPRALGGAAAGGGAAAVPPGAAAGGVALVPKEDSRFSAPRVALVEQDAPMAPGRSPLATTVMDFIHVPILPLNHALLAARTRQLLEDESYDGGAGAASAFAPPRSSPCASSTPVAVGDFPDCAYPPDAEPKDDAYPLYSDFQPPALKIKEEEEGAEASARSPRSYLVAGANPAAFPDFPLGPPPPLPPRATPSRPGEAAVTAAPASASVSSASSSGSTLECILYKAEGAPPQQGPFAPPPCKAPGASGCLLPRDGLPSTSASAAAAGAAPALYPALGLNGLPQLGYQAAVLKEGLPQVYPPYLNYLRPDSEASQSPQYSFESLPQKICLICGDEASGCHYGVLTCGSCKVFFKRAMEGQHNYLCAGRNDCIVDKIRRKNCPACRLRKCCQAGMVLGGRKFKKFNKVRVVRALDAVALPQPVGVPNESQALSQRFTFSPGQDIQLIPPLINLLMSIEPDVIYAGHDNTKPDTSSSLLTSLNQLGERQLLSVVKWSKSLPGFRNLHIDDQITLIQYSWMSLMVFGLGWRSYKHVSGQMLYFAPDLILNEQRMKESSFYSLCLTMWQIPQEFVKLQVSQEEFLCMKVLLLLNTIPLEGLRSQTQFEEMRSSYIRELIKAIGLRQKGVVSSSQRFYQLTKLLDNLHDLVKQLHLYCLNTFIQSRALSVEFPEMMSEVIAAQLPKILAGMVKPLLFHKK
Experimental: The PR agonistic and antagonistic activities of the synthesized phosphine–borane derivatives were evaluated using an alkaline phosphatase assay with the T47D human breast cancer cell line. […] The basal alkaline phosphatase activity was also not affected by the tested compounds alone. […] The PR antagonistic activities of the compounds were assessed in the presence of 1 nM of P4 (5). We also calculated the molecular volume of each compound to investigate the structure–activity relationship (SAR). Table 2 summarizes the PR antagonistic activity and calculated volumes of the synthesized compounds. […] We investigated the binding affinity of the compounds toward the PR ligand-binding domain (LBD) using a fluorescence polarization assay system. […] We also investigated the activity of compounds 28 and 34 toward the androgen receptor (AR) by means of cell-proliferation promoting/inhibitory activity toward androgen-dependent SC-3 cells. […].
T47D alkaline phosphatase assays were performed as previously described, with minor modifications. Briefly, the human breast cancer cell line T47D (HMS LINCS database Accession Numbers: 50541) was routinely cultivated in RPMI 1640 medium with 10% FBS at 37 °C in a 5% CO2 humidified incubator. The cells were plated in 96-well plates and incubated overnight in a 5% CO2 humidified incubator at 37 °C. The next day, the cells were treated with a fresh medium containing the test compound in the presence of 1 nM of progesterone and further incubated for 48 h. The medium was aspirated, and the cells were fixed with 100 μL of 1.8% formalin–PBS. The fixed cells were washed with PBS, and 100 μL of an assay buffer (1 mg/mL p-nitrophenol phosphate in diethanolamine water solution, pH 9.0) was added. The mixture was incubated at room temperature for 2 h under light-shielded conditions. The absorbance was measured at 405 nm using a DTX 880 Multimode Detector (Beckman Coulter, Brea, CA, USA). All data points were measured in triplicate, and IC50 values were calculated from three independent experiments.

melting point: 41.1 to 41.6 °C
chromatographic logP [1]: 5.64
IC50 [2]: 1400 ± 880 nM
Compound: CN(C)[P+]([BH2-]c1ccc(C(F)(F)F)cc1)(N(C)C)N(C)C [Compound 39, B-4-(Trifluoromethyl)phenyl Tris(dimethylamino)phosphine–Borane]
